This is an account of results in ChEMBL document CHEMBL1177820, “Diazinones as P2 replacements for pyrazole-based cathepsin S inhibitors” (Bioorg Med Chem Lett, 2010).

Molecules are shown by their SMILES.

Data set [1] in a line: Apparent permeability from apical to basolateral side in […] TC7 cells. The format is ADME, cell-based. Particulars: Caco-2. For orientation: Caco-2 monolayers are a common model of the intestinal barrier.
Data set [2] can be described thus: Apparent permeability from basolateral to apical side in […] TC7 cells. The format is ADME, cell-based. The following applies: Caco-2.

A word on the Papp A→B: it is the apparent permeability from the apical to the basolateral side of a cell layer. In general, Papp B→A refers to the apparent permeability from the basolateral to the apical side of a cell layer. For the compound `Cn1c(=O)n(C2CCN(CCCn3ccnc(-c4ccc(Cl)c(CNC(=O)c5ccc(F)cc5)c4)c3=O)CC2)c2cc(Cl)ccc21`, the Papp A→B in data set [1] was found to be 0.6 ×10⁻⁶ cm/s. Further, in data set [2], the Papp B→A was found to be 3.7 ×10⁻⁶ cm/s.
Take `Cn1c(=O)n(C2CCN(CCCn3nccc(-c4ccc(Cl)c(CNC(=O)c5ccc(F)cc5)c4)c3=O)CC2)c2cc(Cl)ccc21`: the Papp A→B in data set [1] was determined as 1.3 ×10⁻⁶ cm/s. The Papp B→A in data set [2] was 1.5 ×10⁻⁶ cm/s.
Consider `Cn1c(=O)n(C2CCN(CCCn3cncc(-c4ccc(Cl)c(CNC(=O)c5ccc(F)cc5)c4)c3=O)CC2)c2cc(Cl)ccc21`, for which the Papp A→B in data set [1] is 2.5 ×10⁻⁶ cm/s. The Papp B→A in data set [2] is 2.9 ×10⁻⁶ cm/s.
